Test results as given in patent US20260325511A1, “METHODS OF USE OF A LIPOSOMAL COMPOSITION COMPRISING AN ATR INHIBITOR” (Jazz Pharmaceuticals Therapeutics, Inc., priority 2023, published 2026).

Assays:
Assay type in all cases: in vivo, mouse
[1] = tested on: colorectal carcinoma (CRC) model (Colo205); assay: Efficacy in colorectal cancer model Colo205 (Example 5); details: Lipo-G Comp. A 10-40 mg/kg IV QW or irinotecan 50 mg/kg IP QW
Protocol: (§1) Subcutaneous tumor models were initiated on 6-8 week old, female athymic nude mice. A cell suspension containing 5e6/100 μL CRC Colo205 cells in 1:1 PBS: Matrigel was subcutaneously injected into the hind flank of […] mice. Tumors were measured three times a week by digital caliper and reported as volume, calculated as V=π×1×w∧2 wherein 1 and w denote the longest and shortest tumor diameter respectively. Engrafted mice were then randomized into cohorts for treatment at an average tumor size of 80 mm^3.
(§2) Mice were organized into appropriate groups consisting of control (empty vehicle) and treatment groups including free irinotecan, irinotecan in combination with liposomal Compound A or liposomal Compound C, or irinotecan and berzosertib. […] Animals were weighed and monitored for survival and in-life observations were collected at the time of weight measurement. Mice were monitored individually to endpoint which was either an individual tumor weight of 2000 mm^3 or other defined risk factors, whichever came first.
An efficacy study similar to those described in Example 3 above, was repeated where liposomal ATR inhibitors (Compounds A) were dosed once a week in a colorectal carcinoma (CRC) model (Colo205). Animal study groups are disclosed in Table 7 (n=8 per group)

CRC Colo205 [2] = assay: Dosing schedule study, efficacy similar to Example 3 (Example 4B); design: dose or concentration left out as unconfirmed; details: vs vehicle; day 44 from inoculation (day 12 from start of measurements)
Protocol: as §1, §2
Efficacy study similar to those described in Example 3 were also repeated where liposomal ATR inhibitors (Compounds A, C, or berzosertib) were dosed once a week or three times a week. Animal study groups are disclosed in Table 5B (n=8 per group). […]

[3] = tested on: non-small-cell lung cancer model (CTG-0828 PDX); assay: Efficacy in NSCLC model CTG-0828 PDX (Example 7)
Protocol: An efficacy study similar to those described in Example 3 above, was repeated where liposomal ATR inhibitor (Compounds A) and/or irinotecan were dosed at 50 mg/kg once a week in a non-small-cell lung cancer model (CTG-0828 PDX) for 5 weeks (QWx5) and compared to combinations of liposomal ATR inhibitor (Compounds A) and irinotecan. Animal study groups are disclosed in Table 10 (n=8 per group).

CRC Colo205 [4] = assay: Tumor efficacy study of liposomal ATR inhibitors + irinotecan, CRC Colo205 model (Example 3)
Protocol: Tumor efficacy studies were used to compare the efficacy of ATR inhibitors (Compounds A and C) in liposomal formulations in combination with irinotecan against irinotecan as a single agent in CRC Colo205 model.
as §1
Mice were organized into appropriate groups consisting of control (empty vehicle) and treatment groups including free irinotecan, irinotecan in combination with liposomal Compound A or liposomal Compound C, or irinotecan and berzosertib. Mice were administered free drug orally, and injected intravenously for liposomal compounds, with the required volume of sample to administer the prescribed dose to the animals based on individual mouse weights on dosing days. Animals were weighed and monitored for survival and in-life observations were collected at the time of weight measurement. Mice were monitored individually to endpoint which was either an individual tumor weight of 2000 mm^3 or other defined risk factors, whichever came first.
Animal study groups are disclosed in Table 2 (n=8 per group). Irinotecan was administered at 50 mg/kg via IP in a liposomal-free composition, once a week. Liposomal ATR inhibitors were administered at either 20 mg/kg (Group7) or 40 mg/kg (Groups 3, 5, 6, 8-10) via IV every other day. Berzosertib, clinical benchmark, was administered 5 consecutive days with 2 days off schedule. Last dose of any therapeutically active agent was administered on day 33.
Table 3 summarizes the tumor growth inhibition (TGI %) compared to the vehicle (Group 2) and tumor growth dynamic (TGD) compared to irinotecan single agent ([…]).

CRC Colo205 [5] = assay: Dosing schedule study, once a week, efficacy similar to Example 3 (Example 4A); details: vs vehicle; day 28 from inoculation (day 14 from start of dosing); irinotecan 50 mg/kg IP
[6] = irinotecan 50 mg/kg IP QW (reference)

CCc1c2c(nc3ccc(OC(=O)N4CCC(N5CCCCC5)CC4)cc13)-c1cc3c(c(=O)n1C2)COC(=O)[C@]3(O)CC [Irinotecan, irinotecan]
activity as single agent [1]: no/limited activity
TGI % D 44(d 12) (CRC Colo205 [2]): 0%
CR tumor regression rate ([3]; 50 mg/kg QWx5): 0%
Tumor Growth Delay Index (TGDI) ([3]; 50 mg/kg QWx5): 4.4
survival: median time to reach and exceed a tumor burden of 1 cm ([3]; 50 mg/kg QWx5, statistically significant improvement): 100 days
Max % Tumor Grown Inhibition (TGI) ([3]; 50 mg/kg each agent, QWx5): 91%
Regression * (% max) ([3]; 50 mg/kg each agent, QWx5): 60%
TGDI (vs. vehicle) ([3]; 50 mg/kg each agent, QWx5): 4.4
TGI % (vs. vehicle) d 20 (CRC Colo205 [4]; day 20, irinotecan 50 mg/kg IP QW): 67%
TGI % (vs. vehicle) d 27 (CRC Colo205 [4]; day 27, irinotecan 50 mg/kg IP QW): 74%
CR % (complete response) (CRC Colo205 [4]; irinotecan 50 mg/kg IP QW): 0%
ORR % (objective response rate) (CRC Colo205 [4]; irinotecan 50 mg/kg IP QW): 0%
TGD (vs. single agent) % (CRC Colo205 [4]; [6]): 0%
TGD (vs. single agent) Index (CRC Colo205 [4]; [6]): 1.0
PR# (partial response), number of mice (CRC Colo205 [4]; irinotecan 50 mg/kg IP QW, n=8): 0 mice
Total R (response), number of mice (CRC Colo205 [4]; irinotecan 50 mg/kg IP QW, n=8): 0 mice
TGI % d 28 (d 14) (CRC Colo205 [5]): 55.4%
